“Also recorded” adds a separate entry of the source.
Tested on: intestinal damage caused by protein-energy malnutrition
Test: Intestinal damage caused by protein-energy malnutrition in pigs
Assay type: in vivo, pig
Conditions: for Ileal mucosa histology (electron transmission microscopy) / Jejunal mucosa histology (electron transmission microscopy): malnourished pigs fed ENSURE PLUS plus supplement; for Alkaline phosphatase (AP) activity in jejunum: versus caseinate supplement; for T helper (CD4+) subpopulation of intra-epithelial lymphocytes in jejunum: versus control group
Description: A study was conducted to evaluate the potential effects of N-acetyl-L-glutamine versus free glutamine on intestinal damage caused by protein-energy malnutrition in pigs. In this study, 5-week-old domestic pigs, were provided by a certified farm. The pigs were randomly assigned to one of two groups. In one group 3 pigs were freely fed with ENSURE PLUS® (Ross Products Division, Abbott Laboratories) for 30 days. In the second group, 9 pigs were also fed with ENSURE PLUS®, but at only 20% of the daily intake of the first group. This second group was divided into 3 subgroups with […] each to receive a daily supplement of either calcium caseinate, glutamine or N-acetyl-L-glutamine. Daily average energy and protein supplied to the control group ranged from 3300 kcal, 138 g protein at the beginning of the study to 4500 kcal, 187 g protein at the end of the study. In the second group, supplements of caseinate, glutamine and N-acetyl-L-glutamine provided an additional 1.32 grams nitrogen equivalents per day (basically, 6.89 grams L-glutamine, or 8.87 grams N-acetyl-L-glutamine or 8.42 grams caseinate protein are supplemented per day). After 30 days, all pigs were deprived of food for 16 hours. The animals were then weighed, sedated, anesthetized and sacrificed through terminal bleeding by jugular puncture.
The entire small intestine was quickly removed. The 60 cm segment of the small intestine from the ligament of Treitz was considered proximal jejunum. A 5 cm long segment from the ligament of Treitz was selected for histological analysis of jejunum. The 60 cm length closest to the ileo-cecal valve was considered the distal ileum. A 5 cm segment from the ileo-cecal valve was selected for histological analysis of the ileum. The intestine segments were rinsed thoroughly with ice-cold saline solution, opened length-wise and blotted dry. The mucosa was scraped off using a glass slide onto a cold Petri dish, weighed, immediately frozen under liquid nitrogen and stored at −80° C. until biochemical analysis.
Jejunal and ileal mucosa were homogenized in 10 mM phosphate buffer (pH 7.4) using a mechanical Potter homogenizer, for protein and DNA assays. For the determination of the enzymatic markers of injury, functionality and antioxidant defense system, the mucosal homogenates were centrifuged at 3000 g for 10 min. and the resulting supernatants were used for enzymatic assays. For the determination of total glutathione, the mucosa was homogenized in 5% trichloroacetic acid and centrifuged at 8000 g for 5 min.
Biochemical analysis and immunological analysis were performed on the specimens. Concentrations of intestinal mucosa protein and DNA were determined using the Bradford method (Analytical Biochemistry, Volume 72, pages 248-254, 1976) and the method of Labarca and Paigen (Analytical Biochemistry, Volume 102 (2), pages 344-352, 1980), respectively. The degree of intestinal damage caused by malnutrition was evaluated by measuring alkaline phosphatase activity using the method of Goldstein (R. Goldstein, T. Klein, S. Freier and J. Menczel. American Journal of Clinical Nutrition 24: 1224-1231, 1970).
Glutathione reductase activity was evaluated by the method of Carlberg and Mannervik (I. Carlberg and B. Mannervik, Methods in Enzymology, Volume 113, pp 484-490, 1985). Glutathione transferase activity was measured using the method of Habig, et al. (W. H. Habig, M. J. Pabst and W. B. Jakoby, Journal of Biological Chemistry. […]). Glutathione peroxidase activity was assayed by the method of Flohe and Gunzler (L. Flohe and W. A. Gunzler, Methods in Enzymology, Volume 105, pp 114-121, 1984), and the non-protein sulfhydryl content (reported as reduced glutathione equivalents) was determined by the method of Anderson (M. E. Anderson, Methods in Enzymology, 133: 548-554, 1985). […]

Compound | Ileal mucosa histology (electron transmission microscopy) (30 days) | Jejunal mucosa histology (electron transmission microscopy) (30 days) | Prevention of biochemical and immunological changes induced by malnutrition in the small intestine (malnourished pigs, 30 days) | Alkaline phosphatase (AP) activity in jejunum (malnourished pigs, 30 days) | Total number of peyer's patch lymphocytes in ileum (malnourished pigs, versus N-acetyl-glutamine-supplemented or control groups) | T helper (CD4+) subpopulation of intra-epithelial lymphocytes in jejunum (malnourished pigs) | Prevention of overt signs of inflammation in the epithelial lining of the gastrointestinal tract (electron transmission micrographs, malnourished pigs) | Glutathione transferase activity in small intestine (malnourished pigs, 30 days) | Number of CD1+ intra-epithelial lymphocytes in jejunum (malnourished pigs, 30 days) | Intestinal contents of protein (jejunum and ileum) and DNA (ileum) (malnourished pigs, 30 days, versus caseinate or glutamine supplement) | Amount of GSH in the intestinal mucosa (malnourished pigs, 30 days, versus caseinate or glutamine, did not reach significance) | Total number of peyer's patch lymphocytes in jejunum (malnourished pigs, versus caseinate- or glutamine-supplemented groups)
NC(=O)CC[C@H](N)C(=O)O [Glutamine, glutamine] | displayed loss of microvilli, wide intercellular spaces, and intense lymphocytes infiltration | displayed shortened microvilli, expanded intercellular spaces, and irregular lobulated nucleus | no clear effect | tended to have higher AP activity | significantly lower | significantly higher |  |  |  |  |  | 
CC(=O)N[C@@H](CCC(N)=O)C(=O)O [N-acetyl-L-glutamine] | less affected by protein-energy malnutrition | less affected by protein-energy malnutrition | performed better than the glutamine or caseinate supplemented groups; also recorded: positive effect | tended to have higher AP activity |  | significantly higher | more effective than glutamine | less affected by the malnutrition process | significantly higher than in the rest of the groups | tended to be higher | tended to be slightly higher | tendency of the total number of peyer's patch lymphocytes to be higher
